# Active and inactive are the calls of the source. No cut-off for these calls is given here.
# Key:
# [1] = target: Ribosomal protein S6 kinase alpha-1 (Homo sapiens, UniProt Q15418); assay: Eurofins kinase panel (RPS6KA1); design: compound concentration 1 uM
# [2] = target: T1, Serine/threonine-protein kinase BRSK2 (Homo sapiens) (UniProt Q8IWQ3); assay: BrSK2(h) Eurofins kinase panel; details: Compound concentration 1.0 uM
# T1 sequence (whole entry): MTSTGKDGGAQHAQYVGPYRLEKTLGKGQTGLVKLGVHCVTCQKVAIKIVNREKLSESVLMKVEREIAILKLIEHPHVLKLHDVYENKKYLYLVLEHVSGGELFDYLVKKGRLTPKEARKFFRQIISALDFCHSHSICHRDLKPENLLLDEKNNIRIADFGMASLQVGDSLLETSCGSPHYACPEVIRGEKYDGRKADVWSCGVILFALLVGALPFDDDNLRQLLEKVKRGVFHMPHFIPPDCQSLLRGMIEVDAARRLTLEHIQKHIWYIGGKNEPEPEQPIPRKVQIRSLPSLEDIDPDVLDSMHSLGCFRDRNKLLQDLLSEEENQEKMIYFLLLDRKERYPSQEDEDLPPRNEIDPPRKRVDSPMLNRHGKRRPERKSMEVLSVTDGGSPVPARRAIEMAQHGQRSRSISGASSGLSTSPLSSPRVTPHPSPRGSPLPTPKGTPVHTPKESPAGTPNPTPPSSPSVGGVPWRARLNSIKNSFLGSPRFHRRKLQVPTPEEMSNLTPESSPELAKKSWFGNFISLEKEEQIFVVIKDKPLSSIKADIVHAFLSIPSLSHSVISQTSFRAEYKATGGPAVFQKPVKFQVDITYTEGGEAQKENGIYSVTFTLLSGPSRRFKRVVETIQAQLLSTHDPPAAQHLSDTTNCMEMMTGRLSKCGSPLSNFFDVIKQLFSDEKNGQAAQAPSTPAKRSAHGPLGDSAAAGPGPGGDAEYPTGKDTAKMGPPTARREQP
# [3] = target: Casein kinase I isoform delta (Homo sapiens) (UniProt P48730); assay: CK1delta(h) Eurofins kinase panel; details: Compound concentration 1.0 uM
# [4] = target: Dual specificity protein kinase CLK2 (Homo sapiens) (UniProt P49760); assay: CLK2(h) Eurofins kinase panel; details: Compound concentration 1.0 uM
# [5] = target: T2, Serine/threonine-protein kinase 17B (Homo sapiens) (UniProt O94768); assay: DRAK2(h) Eurofins kinase panel; details: Compound concentration 1.0 uM
# T2 sequence (whole entry): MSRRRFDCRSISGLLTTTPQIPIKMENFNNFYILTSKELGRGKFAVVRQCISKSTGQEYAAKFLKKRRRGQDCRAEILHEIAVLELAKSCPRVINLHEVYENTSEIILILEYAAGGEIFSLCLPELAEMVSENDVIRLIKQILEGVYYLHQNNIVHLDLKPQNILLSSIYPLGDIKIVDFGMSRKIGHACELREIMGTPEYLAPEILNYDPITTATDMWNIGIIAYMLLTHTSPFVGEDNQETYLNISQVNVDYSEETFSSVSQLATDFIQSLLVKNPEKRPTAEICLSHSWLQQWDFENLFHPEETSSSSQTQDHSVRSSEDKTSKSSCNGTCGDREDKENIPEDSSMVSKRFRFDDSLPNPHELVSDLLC
# [6] = target: T3, Dual specificity tyrosine-phosphorylation-regulated kinase 2 (Homo sapiens) (UniProt Q92630); assay: DYRK2(h) Eurofins kinase panel; details: Compound concentration 1.0 uM
# T3 sequence (whole entry): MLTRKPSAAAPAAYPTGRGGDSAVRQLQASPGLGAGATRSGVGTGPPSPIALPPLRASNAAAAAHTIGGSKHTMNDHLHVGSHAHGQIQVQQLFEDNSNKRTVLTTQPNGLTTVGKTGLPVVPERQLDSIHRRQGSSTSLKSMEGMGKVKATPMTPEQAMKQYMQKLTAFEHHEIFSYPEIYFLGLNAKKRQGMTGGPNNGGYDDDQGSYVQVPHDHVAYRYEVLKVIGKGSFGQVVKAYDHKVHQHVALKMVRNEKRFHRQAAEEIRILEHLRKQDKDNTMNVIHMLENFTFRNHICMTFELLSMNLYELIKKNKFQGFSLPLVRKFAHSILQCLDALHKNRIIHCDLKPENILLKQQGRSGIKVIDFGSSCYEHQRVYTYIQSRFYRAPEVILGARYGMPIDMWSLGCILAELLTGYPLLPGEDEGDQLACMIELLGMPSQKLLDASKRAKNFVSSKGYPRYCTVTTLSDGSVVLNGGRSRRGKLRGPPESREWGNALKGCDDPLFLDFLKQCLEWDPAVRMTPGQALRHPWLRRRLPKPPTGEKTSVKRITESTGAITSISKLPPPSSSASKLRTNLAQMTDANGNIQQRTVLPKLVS
# [7] = target: Tyrosine-protein kinase HCK (Homo sapiens) (UniProt P08631); assay: Hck(h) activated Eurofins kinase panel; details: Compound concentration 1.0 uM
# [8] = target: Leucine-rich repeat serine/threonine-protein kinase 2 (Homo sapiens) (UniProt Q5S007); assay: LRRK2(h) Eurofins kinase panel; details: Compound concentration 1.0 uM
# Leucine-rich repeat serine/threonine-protein kinase 2 (Homo sapiens), sequence (Q5S007 whole entry): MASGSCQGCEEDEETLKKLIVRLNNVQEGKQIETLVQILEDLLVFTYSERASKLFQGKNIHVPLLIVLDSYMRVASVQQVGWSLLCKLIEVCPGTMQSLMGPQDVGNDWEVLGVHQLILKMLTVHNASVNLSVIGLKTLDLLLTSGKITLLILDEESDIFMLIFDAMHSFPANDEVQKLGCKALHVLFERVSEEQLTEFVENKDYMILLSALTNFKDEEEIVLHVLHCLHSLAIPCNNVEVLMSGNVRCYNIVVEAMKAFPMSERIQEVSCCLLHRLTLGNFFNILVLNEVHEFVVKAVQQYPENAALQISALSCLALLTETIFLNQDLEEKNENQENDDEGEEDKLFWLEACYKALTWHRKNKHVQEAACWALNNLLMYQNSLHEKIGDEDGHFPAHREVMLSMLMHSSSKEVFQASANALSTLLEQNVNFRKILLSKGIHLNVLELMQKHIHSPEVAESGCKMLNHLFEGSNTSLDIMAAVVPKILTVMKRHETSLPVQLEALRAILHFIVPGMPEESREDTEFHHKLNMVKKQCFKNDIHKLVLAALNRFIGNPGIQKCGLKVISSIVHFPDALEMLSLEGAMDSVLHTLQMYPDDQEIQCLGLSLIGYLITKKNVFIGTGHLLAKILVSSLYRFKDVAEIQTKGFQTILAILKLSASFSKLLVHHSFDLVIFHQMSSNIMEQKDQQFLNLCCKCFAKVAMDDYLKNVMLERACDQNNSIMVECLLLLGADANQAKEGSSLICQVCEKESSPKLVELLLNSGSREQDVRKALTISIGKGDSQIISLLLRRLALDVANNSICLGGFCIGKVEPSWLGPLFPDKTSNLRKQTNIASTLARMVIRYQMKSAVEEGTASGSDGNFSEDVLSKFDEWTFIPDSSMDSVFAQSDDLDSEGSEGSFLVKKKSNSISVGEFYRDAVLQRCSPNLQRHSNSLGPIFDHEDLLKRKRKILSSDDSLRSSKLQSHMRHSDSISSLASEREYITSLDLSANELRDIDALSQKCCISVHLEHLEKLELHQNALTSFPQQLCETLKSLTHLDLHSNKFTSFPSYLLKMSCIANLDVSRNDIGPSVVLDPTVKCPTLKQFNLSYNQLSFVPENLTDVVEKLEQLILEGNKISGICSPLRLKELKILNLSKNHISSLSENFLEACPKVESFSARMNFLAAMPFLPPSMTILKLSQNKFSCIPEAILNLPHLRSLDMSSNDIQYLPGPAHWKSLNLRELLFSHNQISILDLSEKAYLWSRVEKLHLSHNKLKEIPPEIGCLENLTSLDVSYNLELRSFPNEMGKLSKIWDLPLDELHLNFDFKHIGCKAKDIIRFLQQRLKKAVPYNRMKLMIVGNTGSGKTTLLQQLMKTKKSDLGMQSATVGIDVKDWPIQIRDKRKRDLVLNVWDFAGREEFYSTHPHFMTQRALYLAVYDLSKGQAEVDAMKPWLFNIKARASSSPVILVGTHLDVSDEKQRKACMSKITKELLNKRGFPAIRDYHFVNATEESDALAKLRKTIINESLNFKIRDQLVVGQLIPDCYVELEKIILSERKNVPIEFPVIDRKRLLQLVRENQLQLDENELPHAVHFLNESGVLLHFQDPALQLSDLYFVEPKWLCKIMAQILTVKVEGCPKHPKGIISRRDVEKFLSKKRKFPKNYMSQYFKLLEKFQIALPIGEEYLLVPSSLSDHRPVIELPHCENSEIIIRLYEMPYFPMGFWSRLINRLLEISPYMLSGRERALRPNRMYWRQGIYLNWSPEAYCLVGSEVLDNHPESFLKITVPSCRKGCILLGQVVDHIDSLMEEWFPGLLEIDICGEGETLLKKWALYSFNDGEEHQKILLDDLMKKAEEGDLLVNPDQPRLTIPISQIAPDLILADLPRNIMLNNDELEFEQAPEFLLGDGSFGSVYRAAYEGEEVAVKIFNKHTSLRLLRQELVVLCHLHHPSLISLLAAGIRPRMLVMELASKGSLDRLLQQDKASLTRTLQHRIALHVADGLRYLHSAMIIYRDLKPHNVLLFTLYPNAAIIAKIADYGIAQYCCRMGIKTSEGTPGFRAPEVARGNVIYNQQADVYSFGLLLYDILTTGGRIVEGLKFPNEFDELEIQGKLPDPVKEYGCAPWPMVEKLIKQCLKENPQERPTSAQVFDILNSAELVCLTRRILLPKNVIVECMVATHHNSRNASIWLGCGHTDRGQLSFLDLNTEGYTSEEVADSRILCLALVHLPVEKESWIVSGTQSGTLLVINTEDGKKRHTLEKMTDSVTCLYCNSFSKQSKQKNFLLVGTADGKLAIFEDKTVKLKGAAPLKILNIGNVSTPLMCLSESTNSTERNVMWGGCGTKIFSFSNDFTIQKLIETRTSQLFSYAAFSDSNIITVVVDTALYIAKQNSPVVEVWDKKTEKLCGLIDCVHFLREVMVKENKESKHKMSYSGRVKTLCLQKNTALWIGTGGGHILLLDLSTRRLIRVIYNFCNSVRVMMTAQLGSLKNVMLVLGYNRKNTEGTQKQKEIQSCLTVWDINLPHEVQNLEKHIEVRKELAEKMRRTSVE
# [9] = target: Protein kinase C gamma type (Homo sapiens) (UniProt P05129); assay: PKCgamma(h) Eurofins kinase panel; details: Compound concentration 1.0 uM
# [10] = target: T4, Testis-specific serine/threonine-protein kinase 3 (Homo sapiens) (UniProt Q96PN8); assay: TSSK3(h) Eurofins kinase panel; details: Compound concentration 1.0 uM
# T4 sequence (whole entry): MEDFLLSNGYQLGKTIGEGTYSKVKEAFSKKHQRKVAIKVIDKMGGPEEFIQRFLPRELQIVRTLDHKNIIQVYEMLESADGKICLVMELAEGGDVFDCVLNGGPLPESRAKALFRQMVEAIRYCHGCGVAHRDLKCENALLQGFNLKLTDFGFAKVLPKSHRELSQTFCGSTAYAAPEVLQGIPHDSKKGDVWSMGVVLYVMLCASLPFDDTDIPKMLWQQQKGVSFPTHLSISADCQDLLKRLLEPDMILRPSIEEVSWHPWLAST
# [11] = target: Serine/threonine-protein kinase VRK2 (Homo sapiens) (UniProt Q86Y07); assay: VRK2(h) Eurofins kinase panel; details: Compound concentration 1.0 uM
# [12] = target: Tyrosine-protein kinase Yes (Homo sapiens) (UniProt P07947); assay: Yes(h) Eurofins kinase panel; details: Compound concentration 1.0 uM
# Tyrosine-protein kinase Yes (Homo sapiens), sequence (P07947 2-543 limits assumed): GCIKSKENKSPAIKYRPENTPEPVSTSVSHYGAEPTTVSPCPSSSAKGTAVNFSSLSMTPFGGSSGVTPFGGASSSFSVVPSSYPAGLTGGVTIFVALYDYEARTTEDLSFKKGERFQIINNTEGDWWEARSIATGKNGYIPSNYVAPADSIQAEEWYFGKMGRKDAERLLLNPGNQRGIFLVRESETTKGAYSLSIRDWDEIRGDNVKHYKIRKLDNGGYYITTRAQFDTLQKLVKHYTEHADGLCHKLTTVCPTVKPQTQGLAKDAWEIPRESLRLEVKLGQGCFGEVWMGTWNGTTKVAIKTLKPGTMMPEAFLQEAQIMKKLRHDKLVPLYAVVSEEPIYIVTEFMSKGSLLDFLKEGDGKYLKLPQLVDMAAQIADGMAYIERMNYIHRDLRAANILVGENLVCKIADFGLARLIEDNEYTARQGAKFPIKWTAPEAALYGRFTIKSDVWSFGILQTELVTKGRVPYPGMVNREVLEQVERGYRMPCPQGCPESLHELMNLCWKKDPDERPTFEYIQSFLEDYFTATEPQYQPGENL
# PC-3 = assay: PC-3 cell line Proliferation assay; assay type: functional, Homo sapiens; details: time 6 day
# [13] = target: Serine/threonine-protein kinase 24 (Homo sapiens, UniProt Q9Y6E0)
# Serine/threonine-protein kinase 24, sequence (Q9Y6E0 whole entry): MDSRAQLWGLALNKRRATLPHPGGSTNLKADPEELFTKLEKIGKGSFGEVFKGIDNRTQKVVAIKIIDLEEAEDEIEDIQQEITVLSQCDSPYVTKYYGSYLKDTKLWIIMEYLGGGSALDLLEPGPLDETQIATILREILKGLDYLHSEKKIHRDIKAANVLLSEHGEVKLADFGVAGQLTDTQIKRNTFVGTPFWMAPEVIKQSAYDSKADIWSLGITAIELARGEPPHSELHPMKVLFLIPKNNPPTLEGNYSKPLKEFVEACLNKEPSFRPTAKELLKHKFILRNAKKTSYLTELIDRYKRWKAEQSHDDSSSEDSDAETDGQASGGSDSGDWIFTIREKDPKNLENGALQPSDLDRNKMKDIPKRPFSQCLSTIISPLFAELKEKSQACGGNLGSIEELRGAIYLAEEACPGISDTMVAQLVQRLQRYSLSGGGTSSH
# [14] = target: Ribosomal protein S6 kinase alpha-2 (Homo sapiens, UniProt Q15349); details: Compound concentration 1.0 uM
# Ribosomal protein S6 kinase alpha-2, sequence (Q15349 whole entry): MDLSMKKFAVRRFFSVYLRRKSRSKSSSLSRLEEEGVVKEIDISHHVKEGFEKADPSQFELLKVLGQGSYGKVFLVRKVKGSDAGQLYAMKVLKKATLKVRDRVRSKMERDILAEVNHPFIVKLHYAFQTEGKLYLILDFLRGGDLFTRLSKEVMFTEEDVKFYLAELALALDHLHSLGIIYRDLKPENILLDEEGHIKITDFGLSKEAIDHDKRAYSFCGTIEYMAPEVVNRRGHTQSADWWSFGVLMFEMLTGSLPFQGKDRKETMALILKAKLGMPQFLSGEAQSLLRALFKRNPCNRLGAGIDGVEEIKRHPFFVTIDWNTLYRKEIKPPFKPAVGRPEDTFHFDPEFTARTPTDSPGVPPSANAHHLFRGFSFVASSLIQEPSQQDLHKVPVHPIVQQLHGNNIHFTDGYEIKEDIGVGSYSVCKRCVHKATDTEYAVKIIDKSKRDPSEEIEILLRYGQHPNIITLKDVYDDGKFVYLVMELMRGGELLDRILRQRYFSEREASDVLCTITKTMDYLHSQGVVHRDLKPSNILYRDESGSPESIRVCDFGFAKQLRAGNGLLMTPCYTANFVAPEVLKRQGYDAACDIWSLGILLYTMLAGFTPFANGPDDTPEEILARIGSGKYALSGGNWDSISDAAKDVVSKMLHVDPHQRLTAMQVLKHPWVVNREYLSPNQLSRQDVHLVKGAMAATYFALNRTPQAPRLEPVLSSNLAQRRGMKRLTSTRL
# [15] = target: Ribosomal protein S6 kinase alpha-4 (Homo sapiens) (UniProt O75676); details: Compound concentration 1000.0 nM
SMILES,IC50 [1],% residual kinase activity [2] [%],% residual kinase activity [3] [%],% residual kinase activity [4] [%],% residual kinase activity [5] [%],% residual kinase activity [6] [%],% residual kinase activity [7] [%],% residual kinase activity [8] [%],% residual kinase activity [9] [%],% residual kinase activity [10] [%],% residual kinase activity [11] [%],% residual kinase activity [12] [%],Cell Proliferation IC50 (PC-3) [nM],IC50 [13] [nM],% residual kinase activity [14] [%],residual activity [15] [%]
CCc1ccccc1C(=O)Nc1n[nH]c2c(C)c(F)c(C3C(C#N)=C(C)N(C)C(C)=C3C#N)cc12 [BAY-3827],9.1 nM (active),34,94,93,99,100,109,95,47,110,98,90,>10000,94,5,–
CC1=C(C#N)C(c2ccc3c(c2)c(NC(=O)c2ccccc2C)nn3C)C(C#N)=C(C)N1 [BAY-974],–,–,–,–,–,–,–,–,–,–,–,–,–,–,–,100
